Laboratory results taken from patent US12258329B2 (Merck Sharp & Dohme LLC, priority 2018, dated 2025).
pEC50: −log10 of the molar value.

tested on: infected PBMCs (VSV-G pseudotyped HIV virus VSV-G/pNLG1-P2A-ΔEnv); assay: cells; assay type: cell-based, human; conditions: Homo sapiens, PBMC, read-out: TACK EC50

Compound | pEC50
Cc1nc(C)c(Cn2cnc(C(F)(F)F)c(Oc3cc(Cl)cc(C#N)c3F)c2=O)c(=O)[nH]1 [Example 92, 5-chloro-3-((1-((2,4-dimethyl-6-oxo-1,6-dihydropyrimidin-5-yl)methyl)-6-oxo-4-(trifluoromethyl)-1,6-dihydropyrimidin-5-yl)oxy)-2-fluorobenzonitrile] | 6.55
Cc1cc(C#N)c(F)c(Oc2c(C(F)(F)C(F)(F)F)ncn(Cc3c(C)nc(C)[nH]c3=O)c2=O)c1 [Example 93, 3-((1-((2,4-dimethyl-6-oxo-1,6-dihydropyrimidin-5-yl)methyl)-6-oxo-4-(perfluoroethyl)-1,6-dihydropyrimidin-5-yl)oxy)-2-fluoro-5-methylbenzonitrile] | 6.76
Cc1nc(C)c(Cn2cnc(C(F)(F)C(F)F)c(Oc3cc(C(F)(F)F)cc(C#N)c3Cl)c2=O)c(=O)[nH]1 [Example 94, 2-chloro-3-((1-((2,4-dimethyl-6-oxo-1,6-dihydropyrimidin-5-yl)methyl)-6-oxo-4-(1,1,2,2-tetrafluoroethyl)-1,6-dihydropyrimidin-5-yl)oxy)-5-(trifluoromethyl)benzonitrile] | 6.31
Cc1nc(C)c(Cn2cnc(C(F)(F)C(F)(F)F)c(Oc3c(C)cc(C#N)cc3Cl)c2=O)c(=O)[nH]1 [Example 95, 3-chloro-4-((1-((2,4-dimethyl-6-oxo-1,6-dihydropyrimidin-5-yl)methyl)-6-oxo-4-(perfluoroethyl)-1,6-dihydropyrimidin-5-yl)oxy)-5-methylbenzonitrile] | 6.75
Cc1nc(C)c(Cn2cnc(C(F)(F)C(F)(F)F)c(Oc3c(Cl)cc(C#N)cc3Cl)c2=O)c(=O)[nH]1 [Example 96, 3,5-dichloro-4-((1-((2,4-dimethyl-6-oxo-1,6-dihydropyrimidin-5-yl)methyl)-6-oxo-4-(perfluoroethyl)-1,6-dihydropyrimidin-5-yl)oxy)benzonitrile] | 6.44
Cc1nc(C)c(Cn2cnc(C(F)(F)C(F)F)c(Oc3c(Cl)cc(C#N)cc3Cl)c2=O)c(=O)[nH]1 [Example 97, 3,5-dichloro-4-((1-((2,4-dimethyl-6-oxo-1,6-dihydropyrimidin-5-yl)methyl)-6-oxo-4-(1,1,2,2-tetrafluoroethyl)-1,6-dihydropyrimidin-5-yl)oxy)benzonitrile] | 6.74
Cc1nc(C)c(Cn2cnc(C(F)(F)C(F)F)c(Oc3c(C)cc(C#N)cc3Cl)c2=O)c(=O)[nH]1 [Example 98, 3-chloro-4-((1-((2,4-dimethyl-6-oxo-1,6-dihydropyrimidin-5-yl)methyl)-6-oxo-4-(1,1,2,2-tetrafluoroethyl)-1,6-dihydropyrimidin-5-yl)oxy)-5-methylbenzonitrile] | 6.74

same assay, conditions: read-out: TACK EC50

Compound | pEC50
(S) or (R)-3,5-dichloro-4-((1-((2,4- dimethyl-6-oxo-1,6-dihydropyrimidin- 5-y1)methyl)-4-(1-fluoroethyl)-6-oxo- 1,6-dihydropyrimidin-5-yl)oxy) benzonitrile [Example 17] | 6.55
